Assay results: ChEMBL document CHEMBL1151463, “Human immunodeficiency virus types 1 and 2 exhibit comparable sensitivities to Zidovudine and other nucleoside analog inhibitors in vitro” (Antimicrob Agents Chemother, 2008)
Active and inactive are the calls of the source. The calls are words filed in the database; no cut-off is given here.

Assays:
[1] = tested on: Human immunodeficiency virus 1; assay: Antiviral activity against multinucleoside-resistant HIV1 NL4-3 harboring A62V, V75I, F77L, F116Y, Q151M mutation in viral reverse transcriptase infected in human MAGIC-5A cells assessed as inhibition of Lac+ foci expression after 40 hrs; format: functional, organism-based; conditions: Human immunodeficiency virus 1, NL4-3, MAGIC-5A
[2] = tested on: Human immunodeficiency virus 1; assay: Antiviral activity against wild type HIV1 NL4-3 produced from full length pR9deltaApa infected in human MAGIC-5A cells assessed as inhibition of Lac+ foci expression after 40 hrs; format: functional, organism-based; conditions: Human immunodeficiency virus 1, NL4-3, MAGIC-5A
[3] = tested on: Human immunodeficiency virus 1; assay: Selectivity ratio of EC50 for multinucleoside-resistant HIV1 NL4-3 harboring A62V, V75I, F77L, F116Y, Q151M mutation in viral reverse transcriptase to EC50 for wild type HIV1 NL4-3; format: functional
[4] = tested on: Human immunodeficiency virus 2; assay: Antiviral activity against wild type HIV2 ROD produced from full length pROD9 infected in human MAGIC-5A cells assessed as inhibition of Lac+ foci expression after 40 hrs; format: functional, organism-based; conditions: for EC50: Human immunodeficiency virus 2, ISOLATE ROD
[5] = tested on: Human immunodeficiency virus 2; assay: Antiviral activity against wild type HIV2 CDC310319 infected in human MAGIC-5A cells assessed as inhibition of Lac+ foci expression after 40 hrs; format: functional, organism-based
[6] = tested on: Human immunodeficiency virus 2; assay: Antiviral activity against recombinant HIV2 ROD carrying HIV2 UC2 reverse transcriptase infected in human MAGIC-5A cells assessed as inhibition of Lac+ foci expression after 40 hrs; format: functional, organism-based; conditions: Human immunodeficiency virus 2, ISOLATE ROD

Row | SMILES | EC50 [1] | EC50 [2] | Ratio EC50 [3] | EC50 [4] | Activity [5] | EC50 [6] | Activity ([4]; ISOLATE ROD)
1 | Nc1ccn([C@@H]2CS[C@H](CO)O2)c(=O)n1 [LAMIVUDINE] | 3.7 µM | 0.88 µM | 4 | 2 µM | – | – | –
2 | Nc1nc(NC2CC2)c2ncn([C@H]3C=C[C@@H](CO)C3)c2n1 [ABACAVIR] | 40 µM | 7.6 µM | 5 | 7.2 µM | – | – | –
3 | Cc1cn([C@H]2C[C@H](N=[N+]=[N-])[C@@H](CO)O2)c(=O)[nH]c1=O [ZIDOVUDINE] | 7 µM | 0.16 µM | 43 | 0.12 µM | Active | 0.071 µM | Dose-dependent effect
4 | Cc1cn([C@H]2C=C[C@@H](CO)O2)c(=O)[nH]c1=O [STAVUDINE] | 79 µM | 5.5 µM | 14 | 7.1 µM | – | – | –
5 | C[C@H](Cn1cnc2c(N)ncnc21)OCP(=O)(O)O [TENOFOVIR ANHYDROUS] | 26 µM | 7.2 µM | 4 | 7.2 µM | – | – | –
6 | Nc1nc(=O)n([C@@H]2CS[C@H](CO)O2)cc1F [EMTRICITABINE] | 0.79 µM | 0.27 µM | 3 | 0.5 µM | – | – | –
7 | O=c1[nH]cnc2c1ncn2[C@H]1CC[C@@H](CO)O1 [DIDANOSINE] | 45 µM | 4.7 µM | 10 | 8 µM | – | – | –
